Source: ChEMBL document CHEMBL5291721, “A preclinical secondary pharmacology resource illuminates target-adverse drug reaction associations of marketed drugs” (Nat Commun, 2023)

Assays:
Estrogen receptor beta = Estrogen receptor beta (Homo sapiens, UniProt Q92731)
[1] = biological target: 5-hydroxytryptamine receptor 6 (Homo sapiens, UniProt P50406)
Substance-P receptor = Substance-P receptor (Homo sapiens, UniProt P25103)
[2] = biological target: Voltage-dependent L-type calcium channel subunit alpha-1C (Homo sapiens, UniProt Q13936); assay type: functional, cell-based
[3] = biological target: T1, Alpha-1A adrenergic receptor (Homo sapiens, UniProt P35348)
T1 sequence (P35348 whole entry): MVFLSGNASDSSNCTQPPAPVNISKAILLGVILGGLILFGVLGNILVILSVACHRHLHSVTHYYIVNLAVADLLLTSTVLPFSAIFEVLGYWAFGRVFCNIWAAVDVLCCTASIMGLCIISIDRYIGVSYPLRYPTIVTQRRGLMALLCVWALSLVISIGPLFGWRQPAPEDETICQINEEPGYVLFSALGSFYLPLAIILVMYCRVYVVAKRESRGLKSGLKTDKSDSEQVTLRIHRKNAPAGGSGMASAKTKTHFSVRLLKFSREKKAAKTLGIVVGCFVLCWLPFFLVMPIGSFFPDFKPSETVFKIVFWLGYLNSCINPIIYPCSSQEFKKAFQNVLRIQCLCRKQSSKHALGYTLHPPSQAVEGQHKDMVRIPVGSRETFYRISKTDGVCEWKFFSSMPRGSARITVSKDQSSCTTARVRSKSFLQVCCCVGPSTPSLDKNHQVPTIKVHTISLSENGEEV

[4] = biological target: T2, Muscarinic acetylcholine receptor M1 (Homo sapiens, UniProt P11229)
T2 sequence (P11229 whole entry): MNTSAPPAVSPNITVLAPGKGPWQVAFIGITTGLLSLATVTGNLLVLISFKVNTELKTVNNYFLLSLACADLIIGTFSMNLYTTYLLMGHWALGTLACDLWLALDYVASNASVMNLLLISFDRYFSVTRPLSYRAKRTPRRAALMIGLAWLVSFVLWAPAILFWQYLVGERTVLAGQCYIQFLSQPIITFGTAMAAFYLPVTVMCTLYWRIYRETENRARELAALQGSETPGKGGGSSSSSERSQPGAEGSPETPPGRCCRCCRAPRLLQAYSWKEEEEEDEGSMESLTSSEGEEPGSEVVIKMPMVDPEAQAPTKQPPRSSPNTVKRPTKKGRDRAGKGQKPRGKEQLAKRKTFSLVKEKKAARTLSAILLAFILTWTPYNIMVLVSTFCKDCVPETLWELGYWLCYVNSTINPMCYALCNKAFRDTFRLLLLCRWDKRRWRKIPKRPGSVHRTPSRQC

Estrogen receptor = biological target: T3, Estrogen receptor (Homo sapiens, UniProt P03372); assay type: functional
T3 sequence (P03372 whole entry): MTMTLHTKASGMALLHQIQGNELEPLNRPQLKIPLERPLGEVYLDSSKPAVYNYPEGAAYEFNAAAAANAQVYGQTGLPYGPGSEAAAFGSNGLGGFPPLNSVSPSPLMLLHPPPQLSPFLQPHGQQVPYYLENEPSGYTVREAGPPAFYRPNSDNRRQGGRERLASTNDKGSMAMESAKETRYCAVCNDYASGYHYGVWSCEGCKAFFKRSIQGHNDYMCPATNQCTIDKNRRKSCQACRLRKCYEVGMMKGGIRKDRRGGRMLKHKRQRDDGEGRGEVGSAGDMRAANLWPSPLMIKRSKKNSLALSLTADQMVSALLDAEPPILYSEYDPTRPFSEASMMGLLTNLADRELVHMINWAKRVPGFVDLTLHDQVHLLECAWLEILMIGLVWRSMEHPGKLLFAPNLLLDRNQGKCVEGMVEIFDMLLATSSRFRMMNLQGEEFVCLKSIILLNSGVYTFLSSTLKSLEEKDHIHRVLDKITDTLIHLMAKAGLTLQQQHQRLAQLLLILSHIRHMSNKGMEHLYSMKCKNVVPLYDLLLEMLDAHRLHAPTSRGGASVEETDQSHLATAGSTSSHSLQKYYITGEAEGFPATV

Glucocorticoid receptor = biological target: T4, Glucocorticoid receptor (Homo sapiens, UniProt P04150); assay type: functional
T4 sequence (P04150 whole entry): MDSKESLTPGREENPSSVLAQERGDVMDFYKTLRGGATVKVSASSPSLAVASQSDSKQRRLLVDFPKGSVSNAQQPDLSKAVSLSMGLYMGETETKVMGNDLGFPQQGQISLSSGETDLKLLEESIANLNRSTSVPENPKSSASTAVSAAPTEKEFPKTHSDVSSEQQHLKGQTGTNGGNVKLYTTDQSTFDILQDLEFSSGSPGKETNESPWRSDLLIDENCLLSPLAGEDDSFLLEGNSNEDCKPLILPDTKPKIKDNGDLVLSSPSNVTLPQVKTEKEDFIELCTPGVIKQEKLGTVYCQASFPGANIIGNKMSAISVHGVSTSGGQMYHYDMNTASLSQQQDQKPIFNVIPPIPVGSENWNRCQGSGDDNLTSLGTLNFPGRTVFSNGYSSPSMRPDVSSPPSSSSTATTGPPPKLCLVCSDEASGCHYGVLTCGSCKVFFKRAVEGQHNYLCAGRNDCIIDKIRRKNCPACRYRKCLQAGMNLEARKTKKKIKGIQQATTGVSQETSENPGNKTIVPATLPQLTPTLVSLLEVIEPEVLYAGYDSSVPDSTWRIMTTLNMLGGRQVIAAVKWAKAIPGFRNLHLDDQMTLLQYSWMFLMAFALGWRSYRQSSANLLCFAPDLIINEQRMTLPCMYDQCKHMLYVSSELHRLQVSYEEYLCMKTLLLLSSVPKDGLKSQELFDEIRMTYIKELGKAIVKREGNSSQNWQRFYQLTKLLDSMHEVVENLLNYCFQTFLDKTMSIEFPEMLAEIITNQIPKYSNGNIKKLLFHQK
Also: assay procedure not described here.

5-hydroxytryptamine receptor 6, sequence (P50406 whole entry): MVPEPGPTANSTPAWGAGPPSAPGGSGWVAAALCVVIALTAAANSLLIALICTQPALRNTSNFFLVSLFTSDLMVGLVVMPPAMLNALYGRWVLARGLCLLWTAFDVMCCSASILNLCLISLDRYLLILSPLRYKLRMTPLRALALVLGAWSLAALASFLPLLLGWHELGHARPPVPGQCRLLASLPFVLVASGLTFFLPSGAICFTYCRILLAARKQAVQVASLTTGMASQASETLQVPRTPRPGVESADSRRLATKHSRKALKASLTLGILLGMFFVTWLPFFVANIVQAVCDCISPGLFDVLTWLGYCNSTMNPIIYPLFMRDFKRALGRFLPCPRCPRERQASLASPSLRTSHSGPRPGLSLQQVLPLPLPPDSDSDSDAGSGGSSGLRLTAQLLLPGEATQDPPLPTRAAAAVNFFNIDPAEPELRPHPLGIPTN
Estrogen receptor beta, sequence (Q92731 whole entry): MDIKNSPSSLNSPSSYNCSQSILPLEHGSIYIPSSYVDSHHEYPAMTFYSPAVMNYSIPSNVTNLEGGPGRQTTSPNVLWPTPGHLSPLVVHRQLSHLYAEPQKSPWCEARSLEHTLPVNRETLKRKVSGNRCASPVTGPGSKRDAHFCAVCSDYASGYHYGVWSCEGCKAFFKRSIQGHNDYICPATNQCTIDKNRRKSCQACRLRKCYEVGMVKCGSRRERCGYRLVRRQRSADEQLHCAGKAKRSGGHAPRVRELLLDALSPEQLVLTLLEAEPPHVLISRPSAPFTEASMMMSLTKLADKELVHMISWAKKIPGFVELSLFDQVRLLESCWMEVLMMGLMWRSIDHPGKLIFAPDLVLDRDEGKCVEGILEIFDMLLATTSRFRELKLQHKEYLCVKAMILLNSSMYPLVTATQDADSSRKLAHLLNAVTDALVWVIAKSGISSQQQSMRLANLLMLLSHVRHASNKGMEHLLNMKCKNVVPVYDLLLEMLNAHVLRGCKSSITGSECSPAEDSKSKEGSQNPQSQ
Substance-P receptor, sequence (P25103 whole entry): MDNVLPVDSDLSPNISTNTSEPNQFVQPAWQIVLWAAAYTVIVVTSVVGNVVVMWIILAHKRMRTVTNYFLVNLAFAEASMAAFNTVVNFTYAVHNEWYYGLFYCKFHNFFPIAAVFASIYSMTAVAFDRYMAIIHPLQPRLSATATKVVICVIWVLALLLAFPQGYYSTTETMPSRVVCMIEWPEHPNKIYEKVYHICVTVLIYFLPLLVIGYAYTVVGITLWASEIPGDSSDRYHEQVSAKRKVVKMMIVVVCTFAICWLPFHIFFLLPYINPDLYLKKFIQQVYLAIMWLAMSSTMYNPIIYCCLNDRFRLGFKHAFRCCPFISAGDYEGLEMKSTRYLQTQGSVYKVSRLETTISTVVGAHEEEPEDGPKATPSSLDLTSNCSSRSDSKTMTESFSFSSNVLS
Voltage-dependent L-type calcium channel subunit alpha-1C, sequence (Q13936 whole entry): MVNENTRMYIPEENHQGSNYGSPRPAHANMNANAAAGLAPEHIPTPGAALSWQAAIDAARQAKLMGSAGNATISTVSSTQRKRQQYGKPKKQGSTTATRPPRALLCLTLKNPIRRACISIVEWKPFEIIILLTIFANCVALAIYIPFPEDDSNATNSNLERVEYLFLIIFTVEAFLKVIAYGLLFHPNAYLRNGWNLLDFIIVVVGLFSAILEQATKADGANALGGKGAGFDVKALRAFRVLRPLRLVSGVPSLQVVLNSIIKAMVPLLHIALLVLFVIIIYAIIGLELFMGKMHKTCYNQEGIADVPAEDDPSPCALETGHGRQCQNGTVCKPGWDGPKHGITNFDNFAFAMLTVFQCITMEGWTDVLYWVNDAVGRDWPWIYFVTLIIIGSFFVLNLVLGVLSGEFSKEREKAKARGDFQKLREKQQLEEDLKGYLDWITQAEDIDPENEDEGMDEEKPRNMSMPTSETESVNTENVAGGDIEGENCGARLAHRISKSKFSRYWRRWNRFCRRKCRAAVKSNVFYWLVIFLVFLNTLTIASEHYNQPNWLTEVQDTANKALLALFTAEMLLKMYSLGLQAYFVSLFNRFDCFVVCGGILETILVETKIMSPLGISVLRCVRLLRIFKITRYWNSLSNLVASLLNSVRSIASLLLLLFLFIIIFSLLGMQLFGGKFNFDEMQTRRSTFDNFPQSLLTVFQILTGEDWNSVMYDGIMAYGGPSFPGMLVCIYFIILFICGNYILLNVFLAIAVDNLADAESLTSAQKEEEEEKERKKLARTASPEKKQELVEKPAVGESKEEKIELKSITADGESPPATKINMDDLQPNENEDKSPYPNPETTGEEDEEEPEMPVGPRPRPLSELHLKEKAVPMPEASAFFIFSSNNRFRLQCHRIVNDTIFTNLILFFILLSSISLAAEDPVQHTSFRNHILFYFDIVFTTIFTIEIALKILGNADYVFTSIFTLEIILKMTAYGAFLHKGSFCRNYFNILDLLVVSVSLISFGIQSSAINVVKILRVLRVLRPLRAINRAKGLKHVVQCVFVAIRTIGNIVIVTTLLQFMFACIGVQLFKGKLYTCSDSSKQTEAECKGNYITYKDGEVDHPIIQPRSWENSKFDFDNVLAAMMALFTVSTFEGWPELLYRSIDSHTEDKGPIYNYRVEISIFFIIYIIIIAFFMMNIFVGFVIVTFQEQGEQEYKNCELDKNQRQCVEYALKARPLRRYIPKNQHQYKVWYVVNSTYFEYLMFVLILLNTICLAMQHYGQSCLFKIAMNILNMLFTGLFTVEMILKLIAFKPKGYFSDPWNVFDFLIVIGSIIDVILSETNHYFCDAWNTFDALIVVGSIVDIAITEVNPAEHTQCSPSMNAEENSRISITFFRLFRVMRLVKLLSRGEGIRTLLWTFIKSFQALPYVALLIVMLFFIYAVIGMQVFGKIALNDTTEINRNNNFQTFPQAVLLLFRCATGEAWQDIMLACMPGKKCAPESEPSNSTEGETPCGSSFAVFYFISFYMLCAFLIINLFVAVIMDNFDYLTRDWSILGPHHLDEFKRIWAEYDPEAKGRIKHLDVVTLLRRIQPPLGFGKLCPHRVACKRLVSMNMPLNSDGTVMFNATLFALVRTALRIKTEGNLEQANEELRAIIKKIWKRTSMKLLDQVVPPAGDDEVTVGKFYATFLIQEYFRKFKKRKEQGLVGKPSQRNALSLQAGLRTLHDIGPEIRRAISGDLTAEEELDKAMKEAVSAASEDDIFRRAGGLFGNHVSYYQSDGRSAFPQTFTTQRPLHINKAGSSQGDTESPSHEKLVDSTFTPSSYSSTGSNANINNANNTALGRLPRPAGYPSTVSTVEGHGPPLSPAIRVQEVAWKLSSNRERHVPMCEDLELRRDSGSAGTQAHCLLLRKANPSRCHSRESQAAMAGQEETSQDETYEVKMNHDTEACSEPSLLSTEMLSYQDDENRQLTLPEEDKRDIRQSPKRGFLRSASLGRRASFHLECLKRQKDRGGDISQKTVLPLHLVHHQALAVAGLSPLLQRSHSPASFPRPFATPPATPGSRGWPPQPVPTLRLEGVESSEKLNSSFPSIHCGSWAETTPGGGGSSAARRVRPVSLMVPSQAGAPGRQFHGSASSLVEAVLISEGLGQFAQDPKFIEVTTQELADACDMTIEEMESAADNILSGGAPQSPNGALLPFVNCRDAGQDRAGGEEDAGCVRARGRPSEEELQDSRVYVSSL

Row | Compound | AC50 [1] | AC50 (Substance-P receptor) | AC50 [3] | AC50 (Glucocorticoid receptor) | other results
1 | Cc1onc(-c2ccccc2)c1-c1ccc(S(N)(=O)=O)cc1 [VALDECOXIB] | > 10 µM | > 10 µM |  |  | AC50 (Estrogen receptor beta): > 30 µM
2 | CCCN(CCC)C(=O)Cc1c(-c2ccc(Cl)cc2)nc2ccc(Cl)cn12 [ALPIDEM] | > 10 µM |  |  |  | 
3 | COc1cc2nc(N3CCN(C(=O)C4CCCO4)CC3)nc(N)c2cc1OC (stereo not given) [TERAZOSIN] |  | > 10 µM |  |  | AC50 (Estrogen receptor beta): > 30 µM
4 | Nc1ccc(S(=O)(=O)Nc2nccs2)cc1 [SULFATHIAZOLE] |  | > 10 µM |  |  | 
5 | CC(C)N(CCC(C(N)=O)(c1ccccc1)c1ccccn1)C(C)C (stereo not given) [DISOPYRAMIDE] |  |  |  |  | AC50 [2]: > 50 µM; AC50 (Estrogen receptor beta): > 30 µM
6 | CCCC(CCC)C(=O)O [VALPROIC ACID] | > 10 µM | > 10 µM |  |  | 
7 | O=C1CCc2cc(OCCCCc3nnnn3C3CCCCC3)ccc2N1 [CILOSTAZOL] |  |  |  |  | AC50 [2]: > 50 µM
8 | CC[C@@]1(O)C(=O)OCc2c1cc1n(c2=O)Cc2cc3c([N+](=O)[O-])cccc3nc2-1 [RUBITECAN] |  |  | > 30 µM |  | AC50 [4]: > 30 µM
9 | OC[C@H]1O[C@@](CO)(O[C@H]2O[C@H](CO)[C@@H](O)[C@H](O)[C@H]2O)[C@@H](O)[C@@H]1O [SUCROSE] |  |  | > 30 µM |  | AC50 [4]: > 30 µM
10 | C[C@H]1c2cccc(O)c2C(=O)C2=C(O)[C@]3(O)C(=O)C(C(N)=O)=C(O)[C@@H](N(C)C)[C@@H]3[C@@H](O)[C@@H]21 [DOXYCYCLINE] |  | > 10 µM |  |  | 
11 | CO[C@H]1/C=C/O[C@@]2(C)Oc3c(C)c(O)c4c(O)c(c(/C=N/N5CCN(C)CC5)c(O)c4c3C2=O)NC(=O)/C(C)=C\C=C\[C@H](C)[C@H](O)[C@@H](C)[C@@H](O)[C@@H](C)[C@H](OC(C)=O)[C@@H]1C [RIFAMPIN] | > 10 µM |  |  |  | AC50 (Estrogen receptor beta): > 30 µM
12 | C=CC[C@@H]1/C=C(\C)C[C@H](C)C[C@H](OC)[C@H]2O[C@@](O)(C(=O)C(=O)N3CCCC[C@H]3C(=O)O[C@H](/C(C)=C/[C@@H]3CC[C@@H](O)[C@H](OC)C3)[C@H](C)[C@@H](O)CC1=O)[C@H](C)C[C@@H]2OC [TACROLIMUS ANHYDROUS] | > 10 µM | > 10 µM |  | > 30 µM | AC50 [2]: > 50 µM; AC50 (Estrogen receptor): > 30 µM; AC50 (Estrogen receptor beta): > 30 µM
13 | CCOC(=O)c1c(C)cc2c(CO)n[nH]c(=O)c2c1C [OXAGRELATE] |  |  | > 30 µM |  | AC50 [4]: > 30 µM
14 | COc1ccccc1Oc1c(NS(=O)(=O)c2ccc(C(C)(C)C)cc2)nc(-c2ncccn2)nc1OCCO [BOSENTAN] |  |  |  | > 30 µM | AC50 (Estrogen receptor beta): > 30 µM
15 | FC(F)(F)c1ccc(CNc2ccc(Cc3c[nH]c4ncc(Cl)cc34)cn2)cn1 [PEXIDARTINIB] |  |  | 1.31 µM |  | AC50 [4]: 0.3 µM
16 | CCN1CCN(Cc2ccc(Nc3ncc(F)c(-c4cc(F)c5nc(C)n(C(C)C)c5c4)n3)nc2)CC1 [ABEMACICLIB] |  |  |  | > 30 µM | AC50 (Estrogen receptor): > 30 µM
17 | N[C@@H](CC(=O)N1CCn2c(nnc2C(F)(F)F)C1)Cc1cc(F)c(F)cc1F [SITAGLIPTIN] | > 10 µM | > 10 µM |  | > 30 µM | AC50 [2]: > 50 µM; AC50 (Estrogen receptor): > 30 µM

Row | Compound | AC50 [1] | AC50 (Substance-P receptor) | AC50 [3] | AC50 (Glucocorticoid receptor) | other results
18 | CC(C(=O)O)c1ccc2c(c1)[nH]c1ccc(Cl)cc12 (stereo not given) [CARPROFEN] |  |  |  | > 30 µM | 
19 | OC[C@@H](O)[C@@H](O)[C@H](O)[C@@H](O)CO [SORBITOL] |  |  | > 30 µM |  | 
20 | CN1C[C@H](C(=O)N[C@]2(C)O[C@@]3(O)[C@@H]4CCCN4C(=O)[C@H](Cc4ccccc4)N3C2=O)C=C2c3cccc4[nH]cc(c34)C[C@H]21 [ERGOTAMINE] |  |  |  | > 30 µM | AC50 (Estrogen receptor): > 30 µM
21 | CC(C)(O)CNc1nc(Nc2ccnc(C(F)(F)F)c2)nc(-c2cccc(C(F)(F)F)n2)n1 [ENASIDENIB] |  |  | > 30 µM |  | AC50 [4]: > 30 µM
22 | COc1ccccc1OCCNCC(O)COc1cccc2[nH]c3ccccc3c12 (stereo not given) [CARVEDILOL] | 1.25 µM | 0.481 µM |  |  | AC50 (Estrogen receptor beta): > 30 µM
23 | CN1C(C(=O)Nc2ccccn2)=C(O)c2ccccc2S1(=O)=O [PIROXICAM] |  |  | > 30 µM |  | 
24 | CN(CC1(C)CCCO1)S(=O)(=O)c1ccc(Cl)c(S(N)(=O)=O)c1 (stereo not given) [MEFRUSIDE] |  |  | > 30 µM |  | AC50 [4]: > 30 µM
25 | C[C@@H](Oc1cc(-c2cnn(C3CCNCC3)c2)cnc1N)c1c(Cl)ccc(F)c1Cl [CRIZOTINIB] |  |  |  | > 30 µM | AC50 [2]: > 30 µM; AC50 (Estrogen receptor): > 30 µM
26 | CN(C)CCc1c[nH]c2ccc(Cn3cncn3)cc12 [RIZATRIPTAN] | > 10 µM | > 10 µM |  |  | AC50 (Estrogen receptor beta): > 30 µM
27 | COc1cc2nccc(Oc3ccc(NC(=O)C4(C(=O)Nc5ccc(F)cc5)CC4)cc3)c2cc1OC [CABOZANTINIB] |  |  |  | > 30 µM | AC50 (Estrogen receptor): > 10 µM
28 | C#C[C@]1(O)CC[C@H]2[C@@H]3CCC4=CC(=O)CC[C@@H]4[C@H]3C(=C)C[C@@]21CC [ETONOGESTREL] |  |  | > 30 µM |  | AC50 [4]: > 30 µM
29 | CC(C)c1nc(N(C)S(C)(=O)=O)nc(-c2ccc(F)cc2)c1/C=C/[C@@H](O)C[C@@H](O)CC(=O)O [ROSUVASTATIN] |  |  |  | > 30 µM | AC50 (Estrogen receptor): > 30 µM
30 | C[C@H](CCC(=O)O)[C@H]1CC[C@H]2[C@@H]3[C@@H](O)C[C@@H]4C[C@H](O)CC[C@]4(C)[C@H]3CC[C@]12C [URSODIOL] |  |  |  |  | AC50 (Estrogen receptor): > 30 µM
31 | O=C(O)CO [GLYCOLIC ACID] |  |  | > 30 µM |  | 
32 | CCN(CC)CCNC(=O)c1c(C)[nH]c(/C=C2\C(=O)Nc3ccc(F)cc32)c1C [SUNITINIB] | 2.39 µM |  |  |  | AC50 [2]: > 50 µM
33 | CC(C)Cc1ccc(C(C)C(=O)O)cc1 (stereo not given) [IBUPROFEN] | > 10 µM | > 10 µM |  | > 30 µM | AC50 (Estrogen receptor beta): > 30 µM
